# Source: US11648310B2, “Combination of anti-FGFR4-antibody and bile acid sequestrant” (Daiichi Sankyo Europe GmbH, priority 2015, dated 2023)
# How the values were obtained:
# [1] = test system: cynomolgus monkeys; conditions: cynomolgus monkey, in vivo
# From the text: In order to find ort whether any toxic side effects of FGFR4 inhibition are due to elevated bile acid levels, the effect of co-administering agents which interfere with bile acid levels was examined. […] For reducing bile acid levels, the bile acid sequestrant colestyramine (Quantalan™) was used. Ursodeoxycholic acid (Ursofalk™) was used as a second compound for increasing the transport of bile acids out of the liver. Ursodeoxycholic acid is a hydrophilic bile acid that increases bile acid transporter expression and plasma membrane translocation in the liver, (palliative compounds 1 and 2). The study design included four cynomolgus monkeys (two male, two female) per group. The animals were assigned to the following groups [table] […] Duration and frequency: three administrations at 7-day interval (i.e. day 0, day 7 and day 14). The first day of dosing was designated as day 0. After the last administration, the animals were kept for a treatment-free period of at east 28 days. Method: intravenous injection (slow bolus) using a pump system and a microflex infusion set introduced into a vein after local disinfection with an aqueous solution of ethyl alcohol. After injection, the vein was flushed with sterile physiological saline. Volume administered: 9.52 mL/kg/day. Individual dose volumes were calculated using the latest body weight. Palliative Compounds and Vehicle Route: oral. Frequency: twice daily at 8 hours±1 hour apart. Duration: each day from day 0 to the last day of treatment-free period, i.e. at least 41 days of administrations. Method: naso-gastric intubation (animals are trained to this administration rotate five days before the start of treatment). […] Individual dose volumes were calculated using the latest body weight. […] FGF19 serum levels were determined using quantiquine human FGF19 ELISA from RND according to the manufacturer's instructions. RNA expression of cyno liver and ileum samples for Cyp7A1 (liver) and FGF19 (Ileum) were determined using the High-Capacity RNA-to-cDNA Kit (Applied Biosystems/Life Technologies) followed by subsequent quantitative real-time PCR.
# [2] = test system: cynomolgus monkeys; conditions: cynomolgus monkey, in vivo; remark: listed apart in the source
# From the text: In order to find ort whether any toxic side effects of FGFR4 inhibition are due to elevated bile acid levels, the effect of co-administering agents which interfere with bile acid levels was examined. […] For reducing bile acid levels, the bile acid sequestrant colestyramine (Quantalan™) was used. Ursodeoxycholic acid (Ursofalk™) was used as a second compound for increasing the transport of bile acids out of the liver. Ursodeoxycholic acid is a hydrophilic bile acid that increases bile acid transporter expression and plasma membrane translocation in the liver, (palliative compounds 1 and 2).
# The study design included four cynomolgus monkeys (two male, two female) per group. The animals were assigned to the following groups
# Duration and frequency: three administrations at 7-day interval (i.e. day 0, day 7 and day 14). The first day of dosing was designated as day 0. […]
# The test animals were examined for clinical signs, liver enzymes, bile acid levels and FGF19. FGF19 serum levels were determined using quantiquine human FGF19 ELISA from RND according to the manufacturer's instructions. RNA expression of cyno liver and ileum samples for Cyp7A1 (liver) and FGF19 (Ileum) were determined using the High-Capacity RNA-to-cDNA Kit (Applied Biosystems/Life Technologies) followed by subsequent quantitative real-time PCR. […]
substance,measurement,setting,value
"colestyramine [Quantalan™, reference compound]",Alanine aminotransferase activity,[1],within the normal range
same,Bile acid concentration,[1],within the normal range
same,Reversibility of the aspartate aminotransferase effect,[1],reversible
same,Histopathological changes,[2],no histopathological changes
